Results from patent US20250059191A1, “CRYSTALLINE FORMS OF DIAZABICYCLOOCTANE DERIVATIVE AND PRODUCTION PROCESS THEREOF” (MEIJI SEIKA PHARMA CO., LTD., priority 2013, published 2025).

How the values were obtained:
Type in all cases: physicochemical
[1] = Stability of crystalline form III in a packaging container; settings: polyethylene bag/aluminium laminated bag
Method: (§1) Samples were dissolved in water, and these solutions were used as sample solutions. The sample solutions each in the amount of 5 μL were tested under the following conditions by JP16, Liquid Chromatography <2.01>to obtain the amount of each related substance (%) and the total amount of related substances (%), and the content.
(§2) • Column: Waters Atlantis dc18, 5 μm, 4.6×250 mm • Column temperature: a constant temperature of about 35° C. • Injected amount: 5 μL • Detector: an ultraviolet absorption photometer (wavelength: 210 nm) • Mobile phase A: 1.32 g of diammonium hydrogenphosphate was dissolved in 900 mL of water, and phosphoric acid was added to adjust the pH to 3.0. To this was then added water to make 1000 mL. • Mobile phase B: Acetonitrile for liquid chromatography • Gradient program: The mixing ratio of mobile phase A to mobile phase B was controlled as the following time program.
(§3) About 20 mg of the product was precisely measured and tested by JP16, Water Determination <2.48>Coulometric titration.
Crystalline form III was packaged under the following conditions and stability tests were conducted at each of the temperatures and humidity conditions under analysis conditions of Example 9a. The results are shown in Tables 10-12. • Packaging container • Inner bag: a low-density polyethylene·nylon tie band • Outer bag: an aluminium laminated bag·heat sealed

[2] = Stability test of amorphous form and crystalline forms I-IV, 40° C./75% RH, airtight container
Method: Crystalline form III of Example 7a were dissolved in water and subjected to lyophilisation to afford (2S,5R)-N-(2-aminoethoxy)-7-oxo-6-(sulfooxy)-1,6-diazabicyclo[3.2.1]octane-2-carboxamide (VII-1) in an amorphous form. The compounds in an amorphous form and crystalline forms I-IV of Examples 5-8 were each weighed in a screw bottle, and stability tests were conducted at each of the temperatures and humidity conditions. The methods of measurement of related substances, content measurement, and water content measurement were as follows.
as §1, §2, §3

[3] = Experiment on crystal transformation (powder X-ray diffraction after stirring suspension or storage); settings: suspensions after seeding and after isopropanol addition, stirred at room temperature for one day and four days
Method: (§4) Crystal transformation in the polymorphism of the compound represented by Formula (VII-1) obtained in the present invention are not observed in a stability test carried out at 40° C. in the solid state or in stirring the suspension in a hydrous solvent for a long time. When crystalline form III of the compound represented by Formula (VII-1) was subjected to an XRD-DSC experiment, heated to 160° C. at 60% RH, and then allowed to cool on standing to 63° C., the crystalline form changed to anhydrous crystalline form over about 145° C., and then returned to the crystalline form III below about 90° C. after cooling. On the basis of these findings, a crystalline form of a compound represented by Formula (VII-1), particularly the crystalline form III constitutes a stable form under ordinary conditions.
A small amount of a suspension of the crystals of Example 6a was taken and stirred at room temperature for one day. The precipitated crystals were collected and subjected to powder X-ray crystal diffraction.
In the step of Example 7a, a small amount was taken out of the suspension immediately after the seeding and of the suspension after the dropwise addition of isopropanol, and each of the taken-out portions was stirred with a stirring bar at room temperature for one day and four days. The precipitated crystals were collected and subjected to powder X-ray crystals diffraction.
Crystalline form IV of Examples 8a-c was taken and isopropanol/water (6/1) was added thereto and suspended and stirred at 25° C. or 40° C. for one week. Samples were taken after 12 hours, 24 hours (one day), 48 hours (two days), 72 hours (three days), 96 hours (four days) and 168 hours (one week), and subjected to powder X-ray crystal diffraction after through-flow drying.

[4] = Solubility in aqueous isopropanol solution
Text: Crystalline forms I, II and III are distinguished by DSC, solubility in aqueous isopropanol, and lattice spacing in powder X-ray diffraction patterns. […]

[5] = XRD-DSC experiment on crystalline form III (crystal transformation by heating)
Method: as §4
Crystal transformation by heating in polymorphism of crystalline form III of Example 7a was examined using XRD-DSC. Heating and cooling conditions were as follows: the temperature was elevated at a rate of 2° C./min from room temperature to 160° C. and then cooled to 63° C. under a constant relative humidity (RH) of 60%. DSC and XRD of the samples were successively measured. […]

[6] = 60° C., 4 weeks (text: 1 month)

Question: For NCCONC(=O)[C@@H]1CC[C@@H]2CN1C(=O)N2OS(=O)(=O)O [Crystalline form III, (2S,5R)-N-(2-aminoethoxy)-7-oxo-6-(sulfooxy)-1,6-diazabicyclo[3.2.1]octane-2-carboxamide], which Content ([1]; 25° C./60% RH, 3 months) is on record?
Answer: The Content was 99.9%.

Question: What about the “Total amount of related substances” value ([1]; 25° C./60% RH, 3 months) of the same molecule?
Answer: The value was 0.07%.

Question: What about the Water content ([1]; 25° C./60% RH, 3 months) of the same molecule?
Answer: Its Water content is 5.23%.

Question: And the Content ([1]; 25° C./60% RH, at start)?
Answer: The Content was 99.9%.

Question: And the “Total amount of related substances” value ([1]; 25° C./60% RH, at start)?
Answer: Its value is 0.09%.

Question: What about the Water content ([1]; 25° C./60% RH, at start) of the same molecule?
Answer: The Water content was 5.32%.

Question: What about the Content ([1]; 40° C./75% RH, 1 month) of the same molecule?
Answer: Its Content is 99.9%.

Question: What about the “Total amount of related substances” value ([1]; 40° C./75% RH, 1 month) of the same molecule?
Answer: The value was 0.07%.

Question: What about the Water content ([1]; 40° C./75% RH, 1 month) of the same molecule?
Answer: The Water content was 5.51%.

Question: What about the Content ([1]; 40° C./75% RH, 2 months) of the same molecule?
Answer: Its Content is 99.9%.

Question: And the “Total amount of related substances” value ([1]; 40° C./75% RH, 2 months)?
Answer: The value was 0.04%.

Question: And the Water content ([1]; 40° C./75% RH, 2 months)?
Answer: The Water content was 5.27%.

Question: What about the Content ([1]; 40° C./75% RH, 3 months) of the same molecule?
Answer: Its Content is 99.9%.

Question: What about the “Total amount of related substances” value ([1]; 40° C./75% RH, 3 months) of the same molecule?
Answer: The value was 0.06%.

Question: What about the Water content ([1]; 40° C./75% RH, 3 months) of the same molecule?
Answer: Its Water content is 5.29%.

Question: What about the Content ([1]; 40° C./75% RH, at start) of the same molecule?
Answer: Its Content is 99.9%.

Question: What about the “Total amount of related substances” value ([1]; 40° C./75% RH, at start) of the same molecule?
Answer: The value was 0.09%.

Question: What about the Water content ([1]; 40° C./75% RH, at start) of the same molecule?
Answer: Its Water content is 5.20%.

Question: What about the Content ([1]; 60° C., 2 weeks) of the same molecule?
Answer: The Content was 99.9%.

Question: What about the “Total amount of related substances” value ([1]; 60° C., 2 weeks) of the same molecule?
Answer: The value was 0.02%.

Question: And the Water content ([1]; 60° C., 2 weeks)?
Answer: Its Water content is 5.20%.

Question: What about the Content [1, 6] of the same molecule?
Answer: Its Content is 99.9%.

Question: What about the “Total amount of related substances” value [1, 6] of the same molecule?
Answer: The value was 0.04%.

Question: And the Water content [1, 6]?
Answer: Its Water content is 5.08%.

Question: What about the Content ([1]; 60° C., at start) of the same molecule?
Answer: The Content was 99.9%.

Question: And the “Total amount of related substances” value ([1]; 60° C., at start)?
Answer: The value was 0.09%.

Question: And the Water content ([1]; 60° C., at start)?
Answer: Its Water content is 5.20%.

Question: What about the Content ([2]; 1 month) of the same molecule?
Answer: The Content was 100.0%.

Question: And the “Total amount of related substances” value ([2]; 1 month)?
Answer: The value was 0.0%.

Question: And the Water content ([2]; 1 month)?
Answer: The Water content was 5.3%.

Question: And the Content ([2]; 1 month, listed as Form III)?
Answer: Its Content is 100.0%.

Question: And the “Total amount of related substances” value ([2]; 1 month, listed as Form III)?
Answer: Its value is 0.0%.

Question: What about the Water content ([2]; 1 month, listed as Form III) of the same molecule?
Answer: The Water content was 5.3%.

Question: And the Content ([2]; 3 months)?
Answer: The Content was 99.9%.

Question: What about the “Total amount of related substances” value ([2]; 3 months) of the same molecule?
Answer: The value was 0.0%.

Question: And the Water content ([2]; 3 months)?
Answer: The Water content was 5.5%.

Question: What about the Content ([2]; 3 months, listed as Form III) of the same molecule?
Answer: The Content was 99.9%.

Question: And the “Total amount of related substances” value ([2]; 3 months, listed as Form III)?
Answer: Its value is 0.0%.

Question: And the Water content ([2]; 3 months, listed as Form III)?
Answer: The Water content was 5.5%.

Question: What about the Content ([2]; at start) of the same molecule?
Answer: The Content was 99.9%.

Question: And the “Total amount of related substances” value ([2]; at start)?
Answer: The value was 0.0%.

Question: What about the Water content ([2]; at start) of the same molecule?
Answer: The Water content was 5.3%.

Question: What about the Content ([2]; at start, listed as Form III) of the same molecule?
Answer: The Content was 99.9%.

Question: What about the “Total amount of related substances” value ([2]; at start, listed as Form III) of the same molecule?
Answer: Its value is 0.0%.

Question: What about the Water content ([2]; at start, listed as Form III) of the same molecule?
Answer: Its Water content is 5.3%.

Question: And the “Crystal transformation to a different crystal form” value [3]?
Answer: Its value is “No crystal transformation to a different crystal form was observed”.

Question: And the “Solubility in an aqueous 60% isopropanol solution” value ([4]; 10° C.)?
Answer: The value was 0.76%.

Question: What about the “Solubility in an aqueous 60% isopropanol solution” value ([4]; 20° C.) of the same molecule?
Answer: The value was 0.80%.

Question: And the “Temperature at which it returned to the crystalline form III after cooling” value ([5]; allowed to cool to 63° C. at 60% RH)?
Answer: The value was “below 90 °C”.

Question: What about the “Temperature at which the crystalline form changed to anhydrous crystalline form” value ([5]; heated to 160° C. at 60% RH) of the same molecule?
Answer: Its value is “over 145 °C”.
